Data taken from patent publication US5391540A, “Substituted pyridine compounds” (Rohm and Haas Company, priority 1993, dated 1995).

Assays:
Assay in all cases: Pre-emergent herbicidal activity (Table A)
Assay type in all cases: in vivo
[1] = system: Barnyardgrass; conditions: Echinochloa crus-galli, pre-emergence, Bygr, 11.2 kg/ha, 10-14 days, read-out: herbicidal rating (% inhibition)
Outline: (§1)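 Seeds or perennial propagules set on compacted topsoil, then covered with soil mixed with a known amount of test compound applied in acetone or water carrier. Ratings assigned on a scale based on percent inhibition of each species.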

[2] = system: Canada thistle; conditions: Cirsium arvense, pre-emergence, Cath, 11.2 kg/ha, 10-14 days, read-out: herbicidal rating (% inhibition)
Outline: as §1

[3] = system: Cocklebur; conditions: Xanthium strumarium, pre-emergence, Cobu, 11.2 kg/ha, 10-14 days, read-out: herbicidal rating (% inhibition)
Outline: as §1

[4] = system: Common Lambsquarters; conditions: Chenopodium album, pre-emergence, Colq, 11.2 kg/ha, 10-14 days, read-out: herbicidal rating (% inhibition)
Outline: as §1

[5] = system: Downy Brome; conditions: Bromus tectorum, pre-emergence, Dobr, 11.2 kg/ha, 10-14 days, read-out: herbicidal rating (% inhibition)
Outline: as §1

[6] = system: Morningglory; conditions: Ipomoea, pre-emergence, Mogl, 11.2 kg/ha, 10-14 days, read-out: herbicidal rating (% inhibition)
Outline: as §1

[7] = system: Pennsylvania Smartweed; conditions: pre-emergence, Pesw, 11.2 kg/ha, 10-14 days, read-out: herbicidal rating (% inhibition)
Outline: as §1

[8] = system: Quackgrass; conditions: pre-emergence, Rhqg, 11.2 kg/ha, 10-14 days, read-out: herbicidal rating (% inhibition)
Outline: as §1

[9] = system: Rhizome Johnsongrass; conditions: Sorghum halepense, pre-emergence, Rhjg, 11.2 kg/ha, 10-14 days, read-out: herbicidal rating (% inhibition)
Outline: as §1

[10] = system: Velvetleaf; conditions: Abutilon theophrasti, pre-emergence, Vele, 11.2 kg/ha, 10-14 days, read-out: herbicidal rating (% inhibition)
Outline: as §1

[11] = system: Yellow Nutsedge; conditions: Cyperus, pre-emergence, Yens, 11.2 kg/ha, 10-14 days, read-out: herbicidal rating (% inhibition)
Outline: as §1

[12] = system: Annual Bluegrass; conditions: pre-emergence, Anbg, 11.2 kg/ha, 10-14 days, read-out: herbicidal rating (% inhibition)
Experimental: (§2) Tables A and B summarize results of tests conducted to determine the pre-emergent herbicidal activity of the compounds of this invention. The herbicidal ratings used in Tables A and B were assigned according to a scale based on the percent inhibition of each plant species. The herbicide rating symbols in Tables A and B are defined as follows: […]
(§3) One set of pre-emergent tests was conducted as follows:
(§4) Topsoil was placed in a pan and compacted to a depth of 0.95 to 1.27 cm. from the top of the pan. A predetermined number of seeds of each of several monocotyledonous and dicotyledonous annual plant species and/or vegetative propagules of various perennial plant species were placed on top of the soil. The soil required to level fill a pan after seeding or adding vegetative propagules was weighed into another pan. A known amount of the test compound dissolved or suspended in an organic solvent or water and applied in acetone or water as a carrier was thoroughly mixed with this cover soil, and the herbicide/soil mixture was used as a cover layer for the previously prepared pan. In Table A below the amounts of active ingredient were all equivalent to an application rate of 11.2 kilograms/hectare (kg/ha). After treatment, the pans were moved to a greenhouse bench where they were watered as needed to give adequate moisture for germination and growth.
(§5) Approximately 10-14 days (usually 11 days) after planting and treating, the plants were observed and the results recorded.
(§6) The plant species usually regarded as weeds which were utilized in one set of pre-emergent activity tests, the data for which are shown in Table A, are identified by letter headings printed diagonally above the columns according to the following legend: […]

[13] = system: Indian Mustard; conditions: Brassica juncea, pre-emergence, Inmu, 11.2 kg/ha, 10-14 days, read-out: herbicidal rating (% inhibition)
Experimental: as §2, §3, §4, §5, §6

[14] = system: Seedling Johnsongrass; conditions: Sorghum halepense, pre-emergence, Sejg, 11.2 kg/ha, 10-14 days, read-out: herbicidal rating (% inhibition)
Experimental: as §2, §3, §4, §5, §6

[15] = system: Wild Buckwheat; conditions: Fallopia convolvulus, pre-emergence, Wibw, 11.2 kg/ha, 10-14 days, read-out: herbicidal rating (% inhibition)
Experimental: as §2, §3, §4, §5, §6

In the case of `CCCc1c(C(=O)OC)c(OC)nc(C(F)(F)F)c1C(=O)OC` [Compound 91, 3,5-pyridinedicarboxylic acid, 2-methoxy-4-propy1-6-(trifluoromethyl)-, dimethyl ester], the inhibition at 11200 g/ha [1] is reported as 75 to 100%, the inhibition at 11200 g/ha [2] is reported as 75 to 100% and the inhibition at 11200 g/ha [3] is reported as 25 to 49%. It also gave an inhibition at 11200 g/ha [4] of 75 to 100%, an inhibition at 11200 g/ha [5] of 75 to 100% and an inhibition at 11200 g/ha [6] of 75 to 100%. The inhibition at 11200 g/ha [7] was 75 to 100%, the inhibition at 11200 g/ha [8] was 75 to 100% and the inhibition at 11200 g/ha [9] was 75 to 100%. The inhibition at 11200 g/ha [10] was 75 to 100% and the inhibition at 11200 g/ha [11] was 75 to 100%.
`COC(=O)c1c(OC)nc(C(F)(F)F)c(C(=O)OC)c1CC1CC1` [Compound 92, 3,5-pyridinedicarboxylic acid, 4-(cyclopropylmethyl)-2-methoxy-6-(trifluoromethyl)-, dimethyl ester] was tested, and the inhibition at 11200 g/ha [1] was 75 to 100%, the inhibition at 11200 g/ha [2] was 75 to 100% and the inhibition at 11200 g/ha [3] was 50 to 74%. The inhibition at 11200 g/ha [4] was 75 to 100%, the inhibition at 11200 g/ha [5] was 75 to 100% and the inhibition at 11200 g/ha [6] was 75 to 100%. The inhibition at 11200 g/ha [7] was 75 to 100%, the inhibition at 11200 g/ha [8] was 75 to 100% and the inhibition at 11200 g/ha [9] was 0 to 24%. For the same molecule, the inhibition at 11200 g/ha [10] was 75 to 100% and the inhibition at 11200 g/ha [11] was 75 to 100%.
`COC(=O)c1c(OC)nc(C(F)(F)F)c(C2SCCCS2)c1CC(C)C` [Compound 94, 3-pyridinecarboxylic acid, 5-(1,3-dithian-2-yl)-2-methoxy-4-(2-methylpropyl)-6-(trifluoromethyl)-, methyl ester] was tested, and the inhibition at 11200 g/ha [12] was 75 to 100%, the inhibition at 11200 g/ha [13] was 75 to 100% and the inhibition at 11200 g/ha [14] was 75 to 100%. The inhibition at 11200 g/ha [15] was 75 to 100%, the inhibition at 11200 g/ha [1] was 75 to 100% and the inhibition at 11200 g/ha [3] was 25 to 49%. For the same molecule, the inhibition at 11200 g/ha [5] was 50 to 74%, the inhibition at 11200 g/ha [6] was 75 to 100% and the inhibition at 11200 g/ha [10] was 75 to 100%. The inhibition at 11200 g/ha [11] was 0 to 24%.
`COC(=O)c1c(OC)nc(C(F)(F)F)c(C(Cl)=NCCCl)c1CC(C)C` [Compound 95, 3-pyridinecarboxylic acid, 5-[(chloro[2-chloroethyl)imino)methyl]-2-methoxy-4-(2-methylpropyl)-6-(trifluoromethyl)-, methyl ester] gave an inhibition at 11200 g/ha [12] of 75 to 100%, an inhibition at 11200 g/ha [13] of 50 to 74% and an inhibition at 11200 g/ha [14] of 75 to 100%. For the same molecule, the inhibition at 11200 g/ha [15] was 75 to 100%, the inhibition at 11200 g/ha [1] was 75 to 100% and the inhibition at 11200 g/ha [3] was 0 to 24%. For the same molecule, the inhibition at 11200 g/ha [5] was 25 to 49%, the inhibition at 11200 g/ha [6] was 0 to 24% and the inhibition at 11200 g/ha [10] was 50 to 74%. The inhibition at 11200 g/ha [11] was 0 to 24%.
With `COC(=O)c1c(OC(Cl)(Cl)Cl)nc(C(F)(F)F)c(C(=O)OC)c1CC(C)C` [Compound 96, 3,5-pyridinedicarboxylic acid, 4-(2-methylpropyl)-2-(trichloromethoxy)-6-(trifluoromethyl)-, dimethyl ester] the inhibition at 11200 g/ha [12] was 75 to 100%, the inhibition at 11200 g/ha [13] was 75 to 100% and the inhibition at 11200 g/ha [14] was 75 to 100%. For the same molecule, the inhibition at 11200 g/ha [15] was 75 to 100%, the inhibition at 11200 g/ha [1] was 75 to 100% and the inhibition at 11200 g/ha [3] was 0 to 24%. It also gave an inhibition at 11200 g/ha [5] of 50 to 74%, an inhibition at 11200 g/ha [6] of 75 to 100% and an inhibition at 11200 g/ha [10] of 75 to 100%. For the same molecule, the inhibition at 11200 g/ha [11] was 0 to 24%.
In the case of `COC(=O)c1c(OC)nc(C(F)(F)F)c(NC(=O)CCCBr)c1CC(C)C` [Compound 120, 3-pyridinecarboxylic acid, 5-[(4-bromo-1-oxobutyl)amino]-2-methoxy-4-(2-methylpropyl)-6-(trifluoromethyl)-, methyl ester], the inhibition at 11200 g/ha [12] is reported as 75 to 100%, the inhibition at 11200 g/ha [14] is reported as 75 to 100% and the inhibition at 11200 g/ha [1] is reported as 75 to 100%. For the same molecule, the inhibition at 11200 g/ha [3] was 75 to 100%, the inhibition at 11200 g/ha [5] was 75 to 100% and the inhibition at 11200 g/ha [6] was 75 to 100%. It also gave an inhibition at 11200 g/ha [10] of 75 to 100% and an inhibition at 11200 g/ha [11] of 50 to 74%.
